Assay results published in US5872115A, “2-ureido-benzamide derivatives” (Grelan Pharmaceutical Co. Ltd., priority 1995, dated 1999).

Legend:
ACAT of HepG2 microsome = assay: In-vitro test using Hep G2 microsome (ACAT inhibition); assay type: biochemical, human
Protocol: (1) In-vitro Test Using Hep G2 Microsome
ACAT enzyme fraction was prepared from microsome of human derived hepatoma Hep G2 cell according to Sandra's method [Journal of Lipid Research, 27, 875 (1986)].
Microsome was suspended at a concentration of 200 μg protein/20 μl in 0.1M phosphate buffer solution (pH7.4) and the suspension was preincubated at 37° C. for 5 minutes after addition of 10 μl of each test compound dissolved in 0.1M phosphate buffer solution containing bovine serum albmin (BSA). Then, the reaction was initiated by the addition of 5 nmoles of labeled [^14 C]-oleoyl-CoA dissolved in 20 μl of the said phosphate buffer solution containing BSA and the reaction was stopped by the addition of 20 μl of 2N HCl after 10 minutes. [^14 C] cholesterol-oleate formed was separated by thin-layer chromatography and the radioactivity was counted with liquid scintillation counter.
(§1) ACAT inhibitory activities of the test compounds were shown as IC50 values.

ACAT of THP-1 cells = target: T1, ACAT of THP-1 cells (Homo sapiens, UniProt P35610); assay: In-vitro test using THP-1 intact cell (ACAT inhibition); assay type: cell-based; conditions: read-out: IC50 THP1 (intact cell)
T1 construct: differentiated into macrophage-like cells by phorbol ester; endogenous in cells; host or cells: THP-1 (human leukemia), intact cells differentiated by phorbol ester
T1 sequence (P35610 1-550): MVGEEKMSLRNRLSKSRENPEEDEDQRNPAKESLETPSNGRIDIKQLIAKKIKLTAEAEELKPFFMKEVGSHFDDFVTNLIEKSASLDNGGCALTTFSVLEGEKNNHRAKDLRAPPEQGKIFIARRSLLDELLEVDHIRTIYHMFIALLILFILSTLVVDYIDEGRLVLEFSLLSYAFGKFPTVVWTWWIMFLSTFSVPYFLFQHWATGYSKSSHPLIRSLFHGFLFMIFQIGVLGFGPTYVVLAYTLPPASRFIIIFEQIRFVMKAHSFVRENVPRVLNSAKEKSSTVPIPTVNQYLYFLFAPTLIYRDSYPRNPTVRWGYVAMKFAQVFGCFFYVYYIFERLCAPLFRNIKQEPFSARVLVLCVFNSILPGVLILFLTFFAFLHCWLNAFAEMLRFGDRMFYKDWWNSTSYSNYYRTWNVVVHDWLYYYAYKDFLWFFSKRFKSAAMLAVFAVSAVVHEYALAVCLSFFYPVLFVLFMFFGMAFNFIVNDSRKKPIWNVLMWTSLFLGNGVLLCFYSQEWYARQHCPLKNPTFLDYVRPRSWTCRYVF
Protocol: (2) In-vitro Test Using THP-1 Intact Cell
About 2 million cells of human leukemia cell line, THP-1 were seeded in a well with 2 ml of medium and differentiated into macrophage-like cells by phorbol ester. Then, the cells were washed with phosphate-buffered saline (PBS) solution and the medium was replaced by fresh medium supplemented with 10% of lipoprotein-deficient serum. After the addition of each test compound dissolved in dimethyl sulfoxide and 100 μg protein-containing human low density lipoprotein (LDL), the reaction was initiated by the addition of 10 nmoles of labeled [^14 C]oleic acid and 10 nmoles of oleic acid complexed with BSA in PBS solution. After 22 hours, the reaction was stopped by removal the medium and CHCl3 -MeOH (2:1) were added to the cell suspension in order to extract lipids.
Intracellular [^14 C] cholesterol-oleate formed was separated by thin-layer chromatography and the radioactivity was counted with lipid scintillation counter.
as §1

ACAT of macrophage = assay: In-vivo test using mouse peritoneal macrophages (ACAT inhibition); conditions: male mice, compound in diet for 16 days
Protocol: (3) In-vivo Test Using Mouse Peritoneal Macrophages
Male mice were fed a standard powder diet containing the test compounds for 16 days. After 14 and 15 days on this diet, aggregated-LDL (containing 4 mg cholesterol) prepared from LDL receptor deficient KHC rabbit and [^14 C] oleic acid together with the said aggregated-LDL (containing 0.5 mg cholesterol) were injected into the peritoneal cavity of these animals, respectively. After 16 days on this treatment, peritoneal macrophages were harvested by peritoneal lavage with PBS solution and CHCl3 -MeOH (2:1) were added to the cell suspension in order to extract lipids. Formed [^14 C] cholesterol oleate was separated by thin-layer chromatography and the radioactivity was counted.
ACAT inhibitory activities of the test compounds were shown as inhibiting percentage referred to control group.

[1] = Acute toxicity, male ICR strain mouse; assay type: in vivo; conditions: 1000 mg/kg orally, seven days after administration
Protocol: (1) Acute toxicity: Nine compounds (Example Nos. 1, 2, 5, 6, 12, 19, 28, 31 and 45) were tested by using male ICR strain mouse weighing 23.0±0.7 g.

ACAT of macrophages = assay: In vivo test using peritoneal macrophages in C57BL/6J mice (ACAT inhibition); parameters: species or system mouse; conditions: Experiment 1; female C57BL/6J mice, 30 mg/kg/day per os for 4 days
Protocol: (6) In Vivo Test Using Peritoneal Macrophages in C57BL/6J Mice
A standard pellet diet fed female C57BL/6J mice were administered at 10 a.m. per os 30 mg/kg/day of oral suspension (1% CMC-Na 0.2% Tween 80) for 4 days. Thioglycollate and [^14 C] cholesterol were injected […], mice were sacrificed for the collection of peritoneal macrophages. Lipid was extracted, formed [^14 C] cholesterol-ester was separated by thin-layer chromatography and radioactivity was counted as described above in method (3).
In vivo ACAT inhibitory activities on macrophages were expressed as percentage of inhibition compared to control group.

SMILES	IC50 (ACAT of HepG2 microsome) [nM]	IC50 (ACAT of THP-1 cells) [nM]	Inhibition rate (macrophages) (ACAT of macrophage) [%]	macroscopic changes on any organs at autopsy [1]	Inhibition rate (macrophages) (ACAT of macrophages) [%]
CCCCCCCNC(=O)Nc1ccccc1C(=O)NCC1CCN(C(c2ccccc2)c2ccccc2)CC1 [Example 5, 2-(N'-n-Heptylureido)-N-[(1-diphenylmethylpiperidin-4-yl)methyl]benzamide]	1600	70	64	no macroscopic changes were observed	
CCCCCCCNC(=O)Nc1ccc(N(C)C)cc1C(=O)NCC1CCN(C(c2ccccc2)c2ccccc2)CC1 [Example 1, 2-(N'-n-Heptylureido)-5-dimethylamino-N-[(1-diphenylmethylpiperidin-4-yl)methyl]-benzamide]	600	70	65	no macroscopic changes were observed	81.0
